Results taken from patent publication US10105319B2 (Murray and Poole Enterprises Limited, priority 2013, dated 2018).

Legend:
[1] = system: patients with a first episode of acute pericarditis; details: at 18 months; conventional treatment plus colchicine 0.5 to 1.0 mg/day for 3 months; p=0.004; cited from earlier work
[2] = system: patients with clinically stable coronary disease; assay: LoDoCo Trial: colchicine 0.5 mg/day added to standard secondary prevention; assay type: in vivo, human
Description: This study is described in PCT/AU2013/001261 and is hereby incorporated in its entirety by reference.
All outcomes were evaluated by an experienced adjudicator blinded to the treatment allocation.
Patients with a history of bypass surgery were only eligible if they had undergone bypass surgery more than 10 years before, or had angiographic evidence of graft failure or had undergone stenting since their bypass surgery. All patients signed informed consent before randomization.
The randomization sequence was computer generated, kept concealed from the investigators at all times and was managed by a research assistant who had no involvement in the evaluation or management of study patients. […] Patients who were intolerant to therapy remained in the study, and were followed in the usual manner and included in the primary intention to treat analysis.
The drug was dispensed by their usual chemist, and if requested, patients were reimbursed for the cost of these scripts. All other treatments were continued as usual.
Patient compliance with treatment and outcome data were collected at routine follow up visits and at the time of any unplanned hospital admission. An acute coronary syndrome (ACS) was defined as either (a) Acute Myocardial Infarction (AMI), as evidenced by acute ischemic chest pain associated with a rise in serum troponin above the upper limit of normal or (b) Unstable Angina (UA), as evidenced by a recent acceleration of the patient's angina unassociated with a rise in serum troponin but associated with angiographic evidence of a change in the patient's coronary anatomy. (Unstable Angina Braunwald classification types IB and IIB). The ACS was characterized as being stent-related if there was evidence of significant in-stent stenosis or acute stent thrombosis. Out of Hospital Cardiac Arrest was defined as either a sudden death as evidenced on the patient's death certificate, or a non-fatal out of hospital cardiac arrest, defined as a recovery from sudden collapse associated with documented asystole, ventricular tachycardia or ventricular fibrillation. Noncardioembolic ischemic stroke was defined as CT or MRI proven ischemic stroke adjudged by the treating neurologist as not being due to atrial fibrillation or intracranial hemorrhage.
The primary efficacy outcome was the composite, ACS, fatal or non-fatal out of hospital cardiac arrest or non-cardio-embolic ischemic stroke. Secondary outcomes were (a) individual components of the primary outcome, and (b) the components of ACS unrelated to stent disease.
The pre-specified study duration was a minimum follow up of two years in all patients. Accordingly the study was closed on May 31, 2012. During May, all living patients were contacted by phone to collect compliance and outcome data from the last date of follow-up.
Summary statistics, including mean and standard deviation were calculated for all baseline characteristics by treatment arm. All time to event outcomes were calculated in days by subtracting the date of randomization from either: (1) the date of event or death; or (2) the trial termination date for those patients not experiencing the defined event. As pre-specified, the primary efficacy analysis was based on the intention-to-treat principle. The intention-to-treat analysis included all randomized subjects and all events during the time from randomization to the trial termination. Trial termination date was fixed as May 31, 2012. A secondary pre-specified on-treatment analysis was also performed, based on patients who were both tolerant and compliant to therapy beyond the first month of randomization.
The time-to-first-event for all outcomes is presented using a Kaplan-Meier plot. […] The secondary outcomes were analysed similarly.

[3] = system: patients with clinically stable coronary disease; details: 0.5 mg/day in addition to statins; Nidorf et al., JACC 2013; cited from earlier work
[4] = system: patients with a first episode of recurrent pericarditis; details: at 18 months; conventional treatment plus colchicine 0.5-1.0 mg/d for 6 months; cited from earlier work

With `COc1cc2c(c(OC)c1OC)-c1ccc(OC)c(=O)cc1[C@@H](NC(C)=O)CC2` [colchicine, N[5,6,7,9-tetrahydro-1,2,3,10-tetratmethoxy 9-oxobenzo[a]heptalen-7-yl],(S)-acetamide] as the compound, how does the recurrence rate [1] read?
The recurrence rate was 10.7%.

What about the “patients with AMI (ACS unrelated to stent disease)” value ([2]; 0.5 mg/day, 4/282) of the same compound?
The value was 1.4%.

And the “patients with UA (ACS unrelated to stent disease)” value ([2]; 0.5 mg/day, 5/282)?
The value was 1.8%.

What about the “patients with an ACS unrelated to stent disease” value ([2]; 0.5 mg/day, 9/282) of the same compound?
The value was 3.2%.

What about the “patients presenting with an ACS” value ([2]; 0.5 mg/day, 13/282) of the same compound?
Its value is 4.6%.

What about the “patients with primary outcome (ACS, out of hospital cardiac arrest or non-cardio-embolic ischemic stroke)” value ([2]; 0.5 mg/day, intention to treat, 15/282, median follow up 36 months) of the same compound?
Its value is 5.3%.

What about the “patients reporting early intolerance due to gastrointestinal side effects” value ([2]; 32 of 282 randomized to treatment) of the same compound?
Its value is 11%.

What about the patients who died ([2]; colchicine group, all of non-cardiac causes, 10 in control group) of the same compound?
Its patients who died is 4 patients.

And the “out of hospital cardiac arrest and non-cardio-embolic ischemic stroke” value ([2]; treatment group vs control)?
Its value is “infrequent but were also reduced”.

What about the “prevention of cardiovascular events” value [3] of the same compound?
Its value is “appeared effective”.

What about the “recurrence rate (actuarial rate)” value [4] of the same compound?
Its value is 24.0%.
